# Assay results from patent US5543312A, “Pastuerella haemolytica glycoprotease gene and the purified enzyme” (priority 1991, dated 1996).
# Experiments:
# [1] = target: P. haemolytica A1 glycoprotease (Mannheimia haemolytica, UniProt P36175); test: biochemical; settings: for Restoration of protease activity by addition of divalent metal ion: after EDTA treatment and dialysis of the enzyme; for Increase of activity by addition of divalent metal ion: native enzyme; for Inhibition of the glycoprotease by anions and acidic amino acids: millimolar concentrations
# Chain of P. haemolytica A1 glycoprotease (P36175 whole entry): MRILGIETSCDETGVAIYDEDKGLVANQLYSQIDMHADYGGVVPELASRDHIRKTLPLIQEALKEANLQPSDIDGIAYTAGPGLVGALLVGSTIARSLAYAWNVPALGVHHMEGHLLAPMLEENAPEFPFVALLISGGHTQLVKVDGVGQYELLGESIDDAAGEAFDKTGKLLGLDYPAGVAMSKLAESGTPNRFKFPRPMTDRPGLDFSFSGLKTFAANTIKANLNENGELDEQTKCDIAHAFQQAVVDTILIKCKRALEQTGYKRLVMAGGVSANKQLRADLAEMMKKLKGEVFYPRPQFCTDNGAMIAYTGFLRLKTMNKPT
# [2] = test system: P. haemolytica glycoprotease; test: Cleavage of cell surface antigens of surface-125I-iodinated KG1a cells, immunoprecipitation and SDS-PAGE; type: cell-based
# From the text: In our previous work, we have concentrated on the cleavage of human erythrocyte glycophorin A by the P. haemolytica glycoprotease Udoh et al. 1986. Univ. of Guelph; Abdullah et al. 1988. Proc. Canad. Fed. Biol. Socs.; Abdullah et al. 1990. Biochem. Soc. Trans. This substrate is well-characterized erythrocyte surface O-sialoglycoprotein and is readily available for biochemical analysis. However, it is clear that the physiological targets of this enzyme are not erthrocyte antigens but are probably O-sialoglycoproteins on the surfaces of leukocytes or endothelial cells. SDS-PAGE analysis of immunoprecipitations performed with specific monoclonal antibodies on lysates of surface-^125 I-iodinated KG1a cells, a primitive myeloid/T-lymphois stem cell line Koeffler et al. 1977. Science 200, have shown that the O-sialoglycoprotein cell surface antigens CD34 Civin et al. 1989. Leucocyte Typing IV, Oxford Univ. Press. CD43/leucosialin Killeen et al. 1987. EMBO J.; Pallant et al. 1989. PNAS, CD44/lyaluronic acid receptor Stamenkovic et al. 1989. Cell; Aruffo et al. 1990. Cell and CD45/leucocyte common antigen Thomas et al. 1989. Annu. REv. Immunol.; Pulido et al. 1989. J. Immunol. are all cleaved by the glycoprotease. Although the glycoprotease-sensitive structures contain some N-linked glycans they are all extensively glycosylated with O-linked carbohydrates. […]
# [3] = target: P. haemolytica A1 protease (Mannheimia haemolytica, UniProt P36175); type: biochemical; settings: SDS-PAGE and Coomassie blue staining
# Chain of P. haemolytica A1 protease (P36175 whole entry, looked up): as the sequence (P36175 whole entry) above
# [4] = pH 7.4, read-out: Activity (% of enzyme activity in the absence of any inhibitor)
molecule,measurement,setting,value
"c1cnc2c(c1)ccc1cccnc12 [1,10-phenanthroline]",Inhibition of the protease by prolonged treatment,[1]; prolonged treatment (24 h),inhibited
O=C1O[C@H]([C@@H](O)CO)C(O)=C1O [Ascorbate],inhibition at 11400 µM,[1]; [4],60%
[Ca+2] [Ca^2+],Restoration of protease activity by addition of divalent metal ion,[1],failed to restore
same,Increase of activity by addition of divalent metal ion,[1],failed to increase
[Fe+2] [Fe^2+],Restoration of protease activity by addition of divalent metal ion,[1],failed to restore
same,Increase of activity by addition of divalent metal ion,[1],failed to increase
[Mg+2] [Mg^2+],Restoration of protease activity by addition of divalent metal ion,[1],failed to restore
same,Increase of activity by addition of divalent metal ion,[1],failed to increase
CCN1C(=O)C=CC1=O [N-ethylmaleimide],Inhibition of glycoprotease by conventional protease inhibitors,[1],No inhibition
"CC(C)C[C@H](NP(=O)(O)O[C@H]1O[C@@H](C)[C@H](O)[C@@H](O)[C@H]1O)C(=O)N[C@@H](Cc1c[nH]c2ccccc12)C(=O)O [Phosphoramidon, N-(β-L-rhamnopyranosyl-oxyhydroxyphosphinyl)-L-leucyl-L-tryptophan]",Inhibition of the glycoprotease (in words),[1]; concentration not given,without significant effect
same,inhibition at 900 µM,[1]; [4],95%
[Zn+2] [Zn^2+],Restoration of protease activity by addition of divalent metal ion,[1],failed to restore
same,Increase of activity by addition of divalent metal ion,[1],failed to increase
N[C@@H](CC(=O)O)C(=O)O [aspartate],Inhibition of the glycoprotease by anions and acidic amino acids,[1],Some inhibitions
N[C@@H](CCC(=O)O)C(=O)O [glutamate],Inhibition of the glycoprotease by anions and acidic amino acids,[1],Some inhibitions
O=C(O)c1cc[c]([Hg][Cl])cc1 [p-chloromercuribenzoate],Inhibition of glycoprotease by conventional protease inhibitors,[1],No inhibition
O=C(O)c1cc[c]([Hg+])cc1.[OH-] [p-hydroxymercuribenzoate],Inhibition of glycoprotease by conventional protease inhibitors,[1],No inhibition
O=S(=O)(F)Cc1ccccc1 [phenylmethanesulfonyl-fluoride],Inhibition of glycoprotease by conventional protease inhibitors,[1],No inhibition
Cc1ccc(S(=O)(=O)NC(CCCCN)C(=O)CCl)cc1 (stereo not shown) [tosyl-lysl chloromethylketone],Inhibition of glycoprotease by conventional protease inhibitors,[1],No inhibition
Cc1ccc(S(=O)(=O)NC(Cc2ccccc2)C(=O)CCl)cc1 (stereo not shown) [tosylphenylalanyl chloromethylketone],Inhibition of glycoprotease by conventional protease inhibitors,[1],No inhibition
"CD44/lyaluronic acid receptor: O-sialoglycoprotein cell surface antigen, hyaluronate receptor",Cleavage of cell surface antigen by the glycoprotease,[2],cleaved
CD71/transferrin receptor: N-linked glycoprotein which lacks O-sialo-residues,Cleavage of cell surface antigen by the glycoprotease,[2],resistant
bovine insulin chain A,Hydrolysis of protein by active enzyme fractions,[3],did not hydrolyze
cytochrome c,Hydrolysis of protein by active enzyme fractions,[3],did not hydrolyze
insulin chain B,Hydrolysis of protein by active enzyme fractions,[3],did not hydrolyze
